Laboratory results as given in a melting point compilation (Tetko et al.; mined from patent text by program, amines drawn as free bases though some values may be those of a salt).

Compound | melting point
Clc1ccc(Oc2nc(Cl)nc(Cl)n2)c(Cl)c1 | 120 to 122 °C
NC(=O)c1sc2nccc(N3CCCN(c4ccc5c(c4)OCCO5)CC3)c2c1N | 104 to 107 °C
Cc1ccc(C)n1CCC1SCCC(=O)NC1C(N)=O (configuration not stated) | 181 to 183 °C
CN(C)CCN(C)C(=O)Cc1ccc(NC(=O)c2ccc(-c3ccccc3)cc2)cc1 | 135 to 136 °C
O=C(O)C(=O)Nc1ccc2[nH]c(=O)oc2c1 | 254 °C
N#CC(N)=C(C#N)NCc1cnn(-c2c(Cl)cc(C(F)(F)F)cc2Cl)n1 | 191 to 192 °C
O=C(O)C1CC(c2ccco2)=NN1C(=O)CCS (configuration not stated) | 121 to 123 °C
CC(C)c1ccc(N(CC(=O)N2CCOCC2)C(=O)C2CCCc3ccccc32)cc1 (configuration not stated) | 180 °C
COC(=O)C1CCCN(C(=O)OC(C)(C)C)C1 (configuration not stated) | 47.5 to 48.5 °C
COC1(c2csc(S(=O)(=O)c3ccc4c(c3)CC/C4=N\O)c2)CCOCC1 | 144 to 145 °C
COc1ccc2c(c1OC(C)=O)N=CC1CCCN1C2=O (configuration not stated) | 144 to 146 °C
CCc1cc(=O)c2cc(C(C)C(=O)O)ccc2o1 (configuration not stated) | 128 °C
O=C(Nc1ccc2ccc(Cl)nc2n1)c1cscn1 | 325 °C
Cc1ccccc1Sc1cccc(CO)c1O | 75 to 77 °C
CCCn1nc(C(C)C)c(C(=O)OCc2ccccc2C(=O)c2ccccc2)c1Cc1ccc(-c2ccccc2S(=O)(=O)NC(=O)OC(C)(C)C)c(F)c1 | 57 to 61 °C
COc1cc(N2CCN(CCC3CN(C)C(=O)O3)CC2)cc(OC)c1OC (configuration not stated) | 86 to 88 °C
CN(C)S(=O)(=O)c1cc2c(c(C(=O)O)c1)OCCO2 | 220 to 221 °C
O=[N+]([O-])c1ccc2c(c1-c1n[nH]cc1Cl)OC(F)(F)O2 | 180 °C
CC(C)C1C(O)=CC(=O)N1c1ccc(C#N)c(Cl)c1 (configuration not stated) | 217 to 219 °C
O=C(c1cccs1)c1cnc2[nH]ncc2c1NC1CC1 | 268 to 270 °C
CCNCc1nc(-c2ncn3c2CN(C)C(=O)c2cc(F)ccc2-3)no1 | 166 to 168 °C
Cc1ncnc(Cl)c1C | 45 to 47 °C
CCCCCCS(=O)(=O)c1nn2c(=O)cc(C)nc2s1 | 111 to 115 °C

Compound | melting point
O=C(O)C(=O)c1ccc(C(=O)NCCOc2ccc3ccccc3c2)cc1 | 173 to 175 °C
CC(=O)OCC1C=CC(n2cc(F)c(N)nc2=O)O1 (configuration not stated) | 182 to 184 °C
O=C1c2ccccc2C(=O)c2c(NC(=O)[C@@H]3C[C@H]3c3ccccc3)ccc(NC(=O)[C@@H]3C[C@H]3c3ccccc3)c21 (relative stereo) | 272 to 274 °C
CNC(=O)N(N=C(C)C)C(=O)c1ccc(Cl)cc1 | 119 to 123 °C
CS(=O)(=O)c1ccc(-c2nn3c(-c4ccccc4)coc3c2-c2ccc(F)cc2)cc1 | 151 to 154 °C
COc1ccc(-c2cc(SC)sc2-c2ccc(OC)cc2)cc1 | 106 to 108 °C
CCC1c2cccn2-c2cccc(C)c2N1S(=O)(=O)c1ccc(O)cc1 (configuration not stated) | 165 to 167 °C
N#Cc1c(-c2ccccc2)c(-c2ccccc2)nn(CCC(=O)NCC(=O)O)c1=O | 113 to 115 °C
COc1nc(C)nc(NC(=O)NS(=O)(=O)c2ccccc2CCC(F)(F)F)n1 | 157 to 158 °C
CCOC(=O)c1snnc1C | 59 to 61 °C
Cc1c[nH]c(CCC(=O)O)c1 | 109 to 112 °C
O=Cc1cc(O)c(O)c([N+](=O)[O-])c1 | 142 to 143 °C
CC(=O)NS(=O)(=O)c1cc(C(=O)CCl)ccc1Cl | 177 °C
CSc1nn2c(N)cc(C)nc2c1S(=O)(=O)c1ccc(Cl)cc1 | > 230 °C
Cc1c(Cl)cccc1N1CCN(CCc2nn(Cc3c[nH]cn3)c3cc4c(cc23)OCO4)CC1 | 176 to 177 °C
CC(C)(C)NC(CO)c1cc(Cl)c(N)c(C(F)(F)F)c1 (configuration not stated) | 85 to 90 °C
Cc1nc(N2CCOCC2)nc(C)c1-c1cccc2c1OC[C@H]2Nc1ccc2c(c1)OC[C@H]2CC(=O)O | 168 °C
CON=C[C@H]1NC(=O)[C@H]1NC(=O)OCc1ccccc1 | 170 to 171 °C
Cc1ccccc1Nc1nc(NCCc2ccccc2)nc2ccccc12 | 95 to 96 °C
CN1CC(CCCl)Oc2cc(Cl)ccc2C1=S (configuration not stated) | 105 to 106 °C
CC(C)c1ccc(C2(OC(=O)c3ccccc3)C(=O)c3ccccc3C2=O)c(O)c1 | 117 to 119 °C
N#Cc1c(-c2ccc(Cl)c(Cl)c2)[nH]c(C(F)(F)F)c1Cl | 239 to 241 °C
CCCCCCC(C)(C)c1cc(O)c2c(c1)OC(C)(C)[C@@H]1CCC(=O)C[C@H]21 (relative stereo) | 151 to 153 °C

Compound | melting point
CCC(C)(CC)C(=O)O[C@H]1CCC=C2C=C[C@H](C)[C@H](CC[C@@H]3C[C@@H](O)CC(=O)O3)[C@H]21 | 61 to 64 °C
COC(=O)c1csc(Cl)c1NC(C)=O | 119 to 121 °C
COC(=O)C1(C(F)CCCCOc2ccc(Cl)cc2)CO1 (configuration not stated) | 76 to 78 °C
Clc1ccnc(Nc2ccccc2)n1 | 134 to 135 °C
CCn1c(=O)c2[nH]c(/C=C/c3cccc([N+](=O)[O-])c3)nc2n(CC)c1=O | > 270 °C
Cc1nc2cc(C(F)(F)F)c(Cl)c(N)c2n1N(C)C | 173 to 174 °C
CCCCc1nc(Cl)c(C(=O)O)n1Cc1ccc(-c2ccccc2I)cc1 | 175 °C
CCOC(=O)C(=CNC(C)(C)C)C(=O)c1cc(F)c(F)c(F)c1F | 112 °C
CCOC(=O)C1=C(C)N(C)C(C)=C(C(=O)OCC)C1c1ccc(OC(C)(C)C(=O)OCC)cc1 | 88 °C
NC(=O)c1ccc(N[C@H]2CC[C@H](N)CC2)cc1F | 166 to 167 °C
O=C1c2ccc(Br)cc2C(=O)c2ccc(Br)cc21 | > 280 °C
CC1CC(=O)NN=C1c1ccc(NCC(C)(C)[N+](=O)[O-])cc1 (configuration not stated) | 187 to 189 °C
O=C(Nc1ccc(Cl)c(Cl)c1)NS(=O)(=O)c1ccccc1 | 194 to 195 °C
Oc1ccc(-c2cc(S)n3nccc3n2)cc1O | > 280 °C
Cc1cc(C)c(-c2cc3cnc(N)nc3nc2N)c(C)c1 | 276 to 282 °C
CN1C(=O)C2(CCN(CCCC(=O)c3ccc(F)cc3)CC2)c2ccccc21 | 95 to 96.5 °C
O=CNCC1CN(c2c(F)cc3c(=O)c(C(=O)O)cn(C4CC4)c3c2F)CCO1 (configuration not stated) | 210 to 213 °C
CC(C)(NC(=O)C(O)C(Cc1ccc(S(C)(=O)=O)cc1)NC(=O)OCc1ccccc1)C(=O)O (configuration not stated) | 146 to 147 °C
O=C(NC1CC=CCC1)NS(=O)(=O)c1ccc2c(c1)CCN(C(=O)N1CCCC1)CC2 (configuration not stated) | 211 to 212 °C
CC(Cc1ccc(Br)cc1)C(=O)NC(C)(C)CO (configuration not stated) | 120 to 121 °C
COC(CN(C)C(=O)Nc1nnc(C(C)Oc2ccccc2Cl)s1)OC (configuration not stated) | 101 to 104 °C

Now from value to compound:

melting point | Compound
130 to 131 °C | COc1cccc(Sc2c(O)cc(-c3ccccc3)oc2=O)c1
237 to 239 °C | CCCSC1=NSc2cc(C)cnc2N1Cc1ccc(-c2ccccc2C(=O)O)cc1
125 to 126 °C | CCCCOc1cc(CCC(=O)O)n(Cc2ccc(C(F)(F)F)cc2Cl)n1
196 to 199 °C | O=C(NCC(=O)N1c2ccccc2N(Cc2ccccc2)C(=O)[C@H]2CCC[C@H]21)c1ccncc1 (relative stereo)
256 to 280 °C | O=C(O)c1ccc(COCc2csc3nc(C(=O)NCc4cccc(F)c4)[nH]c(=O)c23)cc1
215 °C | Nc1ncc2cc(-c3c(Cl)cccc3Cl)c(=O)n(Cc3cccc(Br)c3)c2n1
99 to 105 °C | COc1cc(CC(=O)O)ccc1CNC(=O)C1Cc2ccccc2N1S(=O)(=O)c1ccc(-c2cccc(C(F)(F)F)c2)cc1 (configuration not stated)
187 to 188 °C | Cc1c(C(=O)Nc2ccc(OCC(C)(C)C)c(C#N)c2)cnn1C
73 to 74 °C | O=C(N1CCc2ccccc2CC1)C(F)(F)F
121 to 122 °C | CC(C)CN1CCC(CNc2ccc(Cl)cc2C(=O)Nc2ccc(Cl)cn2)CC1
110 °C | Cc1cc(-c2ccnc(Cl)c2)n(-c2ccc(Cl)cc2)n1
197 to 198 °C | O=C(O)COc1ccc(Cl)cc1-c1ccc(C(=O)N2CCCC2)c(C(F)(F)F)c1
198 to 200 °C | CCn1cc(C)c2cnc(NC(=O)c3ccc(C(C)(C)O)cc3)cc21
98.3 °C | OCc1ccc(OCCCCCSc2ccnc3cc(C(F)(F)F)ccc23)cc1
204 to 206 °C | CNc1nc(-c2cccc(NC(=O)c3ccccc3)c2)c2cc(OCc3ccccc3)c(OC)cc2n1
237 °C | O=C(O)CC1CCCc2c(n(Cc3ccc(-n4ccnc4)cc3)c3ccc(F)cc23)C1 (configuration not stated)
192 to 193 °C | COC(=O)Cc1ccc2nc(C(F)(F)F)cc(O)c2c1
50.8 °C | Cn1c(C(F)(F)F)cc(=O)n(-c2cc(Oc3ccccc3OCc3ccccc3)c(Cl)cc2F)c1=O
64 to 65 °C | O=C1N(Cc2ccc(C(F)(F)F)o2)c2ccccc2C12COc1cc3c(cc12)CCO3 (configuration not stated)
85 to 100 °C | Cc1noc(NS(=O)(=O)c2ccccc2-c2ccc(-c3ncco3)cc2CN(C)C(=O)CC(F)(F)F)c1C
104 to 106 °C | CCCCC1(C(=O)Nc2ccc(Oc3ccc(Cl)cc3)c(C(F)(F)F)c2)CC1
182 to 185 °C | CCc1c(C(F)(F)F)nn(-c2ccc(S(N)(=O)=O)nc2)c1-c1ccc(-c2cscn2)c(F)c1
121 to 122 °C | CCCNCc1cnc2c(C)c(NC(=O)c3ccc(OC[C@@H]4CCCO4)cc3)ccc2c1
173 to 175 °C | CCCc1nnc2ccc(-c3ccc(C(F)(F)F)cc3)nn12
187 to 189 °C | COc1cc2c(cc1C(F)(F)F)N(C(=O)Nc1ccc(OCc3ccncc3)nc1)CC2
163 °C | COc1cc(-c2nc3cnc(OC[C@H](C)NC(C)=O)cc3o2)cc(F)c1OCC1CC1
205 to 207 °C | O=C(O)Cc1ccc(NC(=O)C(COc2cccnc2)NS(=O)(=O)c2ccc(Br)cc2)cc1 (racemic)
109 to 111 °C | COc1ccccc1C1=CC(C)(C)Oc2ccc(C#N)cc21
155 °C | CC(C)(C)OC(=O)N1CCC(c2cn(-c3ccc(F)cc3)c3ccc(C#N)cc23)CC1
115 °C | COCc1ccc(S(=O)(=O)N2CCCC2c2ccc(F)cc2)cc1 (racemic)
